The test system of one test is E. coli 1346. Put plainly: Antibacterial activity of the products per se, serial dilution method in liquid medium (Test E). Type of test: cell-based. Particulars: product per se; for MIC E. coli 1346 (E): test E; for MIC E. coli 1346: Table 3, liquid medium. The source says:
The antibacterial activity of the products per se is illustrated on the basis of Table 3 hereinafter, the minimum inhibitory concentration […] in vitro against E. coli 1346 being determined using the serial dilution method in liquid medium: […]

Test [1] deals with Citrobacter freundii 1982. Put plainly: MIC in vitro of a 1:4 combination of ceftriaxone with a compound of formula I (Test D). Particulars: for MIC C. freundii 1982 (D): test D; for MIC C. freundii 1982: Table 2. Type of test: cell-based. As for the experimental part:
The minimum inhibitory concentration in vitro ([…]) of a 1:4 combination of ceftriaxone with a compound of formula I against Citrobacter freundii 1982 was measured and compiled in Table 2 hereinafter.

Where [2] appears, read: Table 4, 1:4 combination of ceftriaxone with the compound.
Setting [3] is: 1:4 combination of ceftriaxone with the compound.

In brackets after ≈: the same amount, converted by molar mass. Structures can show the parent of a compound that is named as a salt.

Regarding `O=C(O)C1=C(Sc2ccncc2)C[C@@H]2CN[C@@H]3C(=O)N1[C@H]23` [Example 2(d), (1aS,3aR,6bR)-1-oxo-5-(pyridin-4-ylsulphanyl)-1a,2,3,3a,4,6b-hexahydro-1H-2,6a-diazacyclobut[cd]indene-6-carboxylic acid trifluoroacetate], in the test on E. coli 1346 (Table 4), the “MIC E. coli 1346 (E)” value was greater than 32 µg/mL. The “MIC C. freundii 1982 (D)” value in test [1] (setting [2]) amounted to 64 µg/mL.
As for `Cn1nnnc1SCC1=C(C(=O)O)N2C(=O)[C@@H]3[C@H]2[C@H](C1)CN3C=O` [Example 19(k), (1aS,3aR,6bR)-2-Formyl-5-(1-methyl-1H-tetrazol-5-ylsulphanylmethyl)-1-oxo-1a,2,3,3a,4,6b-hexahydro-1H-2,6a-diazacyclobut[cd]indene-6-carboxylic acid sodium salt], the “MIC E. coli 1346 (E)” value with E. coli 1346 (Table 4) is 0.5 µg/mL. For the same compound, the “MIC C. freundii 1982 (D)” value in test [1] (setting [2]) amounted to 0.25 µg/mL.
The like results for `CNC(=O)OCC1=C(C(=O)O)N2C(=O)[C@@H]3[C@H]2[C@H](C1)CN3C(C)=O` [98(a), (1aS,3aR,6bR)-2-Acetyl-5-methylcarbamoyloxymethyl-1-oxo-1a,2,3,3a,4,6b-hexahydro-1H-2,6a-diazacyclobut[cd]indene-6-carboxylic acid sodium salt] were, in that order, 2 µg/mL and 1 µg/mL.
As for `Cc1nnc(SCC2=C(C(=O)[O-])N3C(=O)[C@@H]4[C@H]3[C@H](C2)CN4C(=O)C[n+]2cccc(C(N)=O)c2)s1` [65(d), (1aS,3aR,6bR)-2-(3-Carbamoyl-pyridin-1-ylioacetyl)-5-(5-methyl-1,3,4-thiadiazol-2-ylsulphanylmethyl)-1-oxo-1a,2,3,3a,4,6b-hexahydro-1H-2,6a-diazacyclobut[cd]indene-6-carboxylic acid sodium salt], the “MIC E. coli 1346 (E)” value in the test on E. coli 1346 (Table 4) came out at 16 µg/mL. The “MIC C. freundii 1982 (D)” value in test [1] (setting [2]) turned out to be 2 µg/mL.
The like results for `N#C/C=C\C1=C(C(=O)O)N2C(=O)[C@@H]3[C@H]2[C@H](C1)CN3C(=O)Nc1ccc(O)cc1` [49(a), (Z) -(1aS,3aR,6bR)-5-(2-Cyanovinyl)-2-(4-hydroxyphenylcarbamoyl)-1-oxo-1a,2,3,3a,4,6b-hexahydro-1H-2,6a-diazacyclobut[cd]indene-6-carboxylic acid sodium salt] were, in that order, greater than 32 µg/mL and 2 µg/mL.
The like results for `O=C(O)C1=C(CSc2nc(-c3cccnc3)cs2)C[C@@H]2CN(C(=O)C(F)(F)F)[C@@H]3C(=O)N1[C@H]23` [67(b), (1aS,3aR,6bR)-1-Oxo-5-(4-pyridin-3-yl-thiazol-2-ylsulphanylmethyl)-2-trifluoroacetyl-la,2,3,3a,4,6b-hexahydro-1H-2,6a-diazacyclobut[cd]indene-6-carboxylic acid sodium salt] were, in that order, 4 µg/mL and 8 µg/mL.
The like results for `Cn1nnnc1SCC1=C(C(=O)O)N2C(=O)[C@H]3NC[C@@H](S1)[C@H]32` [Example 40(a), (1aS,3aR,6bS)-5-(1-Methyl-1H-tetrazol-5-ylsulphanylmethyl)-1-oxo-4-thia-1,1a,2,3,3a,6b-hexahydro-2,6a-diazacyclobut[cd]indene-6-carboxylic acid] were, in that order, 16 µg/mL (≈ 47 µM) and 0.5 µg/mL.
For `NC(=O)Cn1nnnc1SCC1=C(C(=O)O)N2C(=O)[C@@H]3[C@H]2[C@H](C1)CN3C=O` [70(c), (1aS,3aR,6bR)-5-(1-Carbamoylmethyl-1H-tetrazol-5-ylsulphanylmethyl)-2-formyl-1-oxo-1a,2,3,3a,4,6b-hexahydro-1H-2,6a-diazacyclobut[cd]indene-6-carboxylic acid sodium salt], in the test on E. coli 1346 (Table 5, particularly preferred products), the “MIC E. coli 1346 (E)” value was 1 µg/mL. In addition, in test [1] (Table 5, particularly preferred products, 1:4 combination with ceftriaxone), the “MIC C. freundii 1982 (D)” value worked out at 0.25 µg/mL.
`Cc1nnc(SCC2=C(C(=O)O)N3C(=O)[C@@H]4[C@H]3[C@H](C2)CN4C(=O)CSCC(N)=O)s1` [65(g), (1aS,3aR,6bR)-2-Carbamoylmethylsulphanylacetyl-5-(5-methyl-1,3,4-thiadiazol-2-ylsulphanylmethyl)-1-oxo-1a,2,3,3a,4,6b-hexahydro-1H-2,6a-diazacyclobut[cd]indene-6-carboxylic acid sodium salt]: the “MIC E. coli 1346 (E)” value with E. coli 1346 (Table 4) worked out at 8 µg/mL. The “MIC C. freundii 1982 (D)” value in test [1] (setting [2]) is 0.5 µg/mL.
The like results for `C=CCOC(=O)N1C[C@H]2OC(CSc3nnnn3C)=C(C(=O)O)N3C(=O)[C@@H]1[C@@H]23` [29(e) Byproduct] were, in that order, 4 µg/mL (≈ 9.79 µM) and 1 µg/mL.
For `O=CN1C[C@H]2OC(CSc3nnnn3CC(=O)NC3CC3)=C(C(=O)O)N3C(=O)[C@@H]1[C@@H]23` [Example 37, (1aS,3aR,6bS)-5-(1-Cyclopropylcarbamoylmethyl-1H-tetrazol-5-ylsulphanylmethyl)-2-formyl-1-oxo-1,1a,2,3,3a,6b-hexahydro-4-oxa-2,6a-diazacyclobut[cd]indene-6-carboxylic acid sodium salt] the same measures were 32 µg/mL and 32 µg/mL.
For the compound `CS(=O)(=O)NCC1=C(C(=O)O)N2C(=O)[C@H]3NC[C@@H](C1)[C@H]32` [Example 87, (1aS,3aR,6bR)-5-Methylsulphonylaminomethyl-1-oxo-1a,2,3,3a,4,6b-hexahydro-1H-2,6a-diazacyclobut[cd]indene-6-carboxylic acid trifluoroacetate], the “MIC E. coli 1346 (E)” value against E. coli 1346 (Table 4) stood at 16 µg/mL. Besides, in test [1] (setting [2]), the “MIC C. freundii 1982 (D)” value amounted to 4 µg/mL.
For `CC(=O)N1C[C@H]2CC(CNS(C)(=O)=O)=C(C(=O)O)N3C(=O)[C@@H]1[C@@H]23` [88(a), (1aS,3aR,6bR)-2-Acetyl-5-methylsulphonylaminomethyl-1-oxo-1a,2,3,3a,4,6b-hexahydro-1H-2,6a-diazacyclobut[cd]indene-6-carboxylic acid sodium salt] the same measures were 16 µg/mL and 4 µg/mL.
On to `Cn1nnnc1SCC1=C(C(=O)O)N2C(=O)[C@H]3NC[C@@H](O1)[C@H]32` [Example 29(e), (1aS,3aR,6bS)-5-(1-Methyl-1H-tetrazol-5-ylsulphanylmethyl)-1-oxo-1,1a,2,3,3a,6b-hexahydro-4-oxa-2,6a-diazacyclobut[cd]indene-6-carboxylic acid sodium salt], for which the “MIC E. coli 1346 (E)” value against E. coli 1346 (Table 4) is 1 µg/mL. Also, the “MIC C. freundii 1982 (D)” value in test [1] (setting [2]) was 0.5 µg/mL.
The like results for `Cc1cc(SCC2=C(C(=O)O)N3C(=O)[C@H]4NC[C@@H](O2)[C@H]43)n2nc(C(N)=O)nc2n1` [Example 29(d), (1aS,3aR,6bS)-5-(2-Carbamoyl-5-methyl[1,2,4]triazolo-[1,5-a]pyrimidin-7-ylsulphanylmethyl)-1-oxo-1,1a,2,3,3a,6b-hexahydro-4-oxa-2,6a-diazacydobut[cd]indene-6-carboxylic acid] were, in that order, 4 µg/mL (≈ 9.58 µM) and 8 µg/mL.
As for `Cn1nnnc1SC1=C(C(=O)O)N2C(=O)[C@H]3NC[C@@H](C1)[C@H]32` [Example 2(a), (1aS,3aR,6bR)-5-(1-Methyl-1H-tetrazol-5-ylsulphanyl)-1-oxo-1a,2,3,3a,4,6b-hexahydro-1H-2,6a-diazacyclobut[cd]indene-6-carboxylic acid trifluoroacetate], the “MIC E. coli 1346” value against E. coli 1346 was 4 µg/mL.
Same read-out and setting: next, `CC(=O)N1C[C@H]2CC(CSc3nnnn3C)=C(C(=O)O)N3C(=O)[C@@H]1[C@@H]23` [Example 19(a), (1aS,3aR,6bR)-2-Acetyl-5-(1-methyl-1H-tetrazol-5-ylsulphahylmethyl)-1-oxo-1a,2,3,3a,4,6b-hexahydro-1H-2,6a-diazacyclobut[cd]indene-6-carboxylic acid sodium salt]: 0.5 µg/mL.
The same measure, in the same setting: under `CS(=O)(=O)OC1=C(C(=O)[O-])N2C(=O)[C@@H]3[C@H]2[C@H](C1)CN3C(=O)C[n+]1cccc(C(N)=O)c1` [11(a), (1 aS,3aR,6bR)-2-(3-Carbamoyl-pyridin-1-ylioacetyl)-5-methylsulphonyloxy-1-oxo-1a,2,3,3a,4,6b-hexahydro-1H-2,6a-diazacyclobut[cd]indene-6-carboxylate] stands 32 µg/mL (≈ 71 µM); under `Cc1nnc(SC2=C(C(=O)O)N3C(=O)[C@@H]4[C@H]3[C@H](C2)CN4C(=O)Nc2ccc(O)cc2)s1` [3(j), (1aS,3aR,6bR)-2-(4-Hydroxyphenylcarbamoyl)-5-(5-methyl-1,3,4-thiadiazol-2-ylsulphanyl)-1-oxo-1a,2,3,3a,4,6b-hexahydro-1H-2,6a-diazacyclobut[cd]indene-6-carboxylic acid sodium salt], 32 µg/mL.
The same measure, in the same setting: next, `Cn1nnnc1SCC1=C(C(=O)O)N2C(=O)[C@H]3NC[C@@H](C1)[C@H]32` [Example 15, (1aS,3aR,6bR)-5-(1-Methyl-1H-tetrazol-5-ylsulphanylmethyl)-1-oxo-1a,2,3,3a,4,6b-hexahydro-1H-2,6a-diazacyclobut[cd]indene-6-carboxylic acid trifluoroacetate]: 2 µg/mL.
With `C[n+]1ccc(SCC2=C(C(=O)[O-])N3C(=O)[C@@H]4[C@H]3[C@H](C2)CN4C(=O)Nc2ccc(C(N)=O)cc2)cc1` [Example 21, (1aS,3aR,6bR)-2-(4-Carbamoyl-phenylcarbamoyl)-5-(1-methylpyridin-1-yliosulphanylmethyl)-1-oxo-1a,2,3,3a,4,6b-hexahydro-1H-2,6a-diazacyclobut[cd]indene-6-carboxylate], the “MIC C. freundii 1982” value in test [1] (setting [3]) came out at 0.5 µg/mL.
Same read-out and setting: under `O=C([O-])C1=C(C[n+]2ccccc2)C[C@@H]2CN(C(=O)NCc3cc(O)no3)[C@@H]3C(=O)N1[C@H]23` [23(b), (1aS,3aR,6bR)-2-(3-Hydroxy-isoxazol-5-ylmethylcarbamoyl)-1-oxo-5-(pyridin-1-yliomethyl)-1a,2,3,3a,4,6b-hexahydro-1H-2,6a-diazacyclobut[cd]indene-6-carboxylate] stands 1 µg/mL.

The values above are taken from US5464617A, “β-lactam compounds” (Hoffmann-La Roche Inc., priority 1994, dated 1995).
